We go through 6 molecules from US20230017045A1, “PYRIDINE AND PYRIMIDINE CARBOXYLATE HERBICIDES AND METHODS OF USE THEREOF” (Dow AgroSciences LLC, priority 2017, published 2023).

The test system of the test is test plant species. Description: Post-emergent herbicidal activity test (greenhouse, foliar spray, visual growth reduction). The test is classed as in vivo. The note with it: 140 g ai/ha; for pest or weed control at 140 g/ha: post-emergence, 336 h. In a few lines:
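Visual scoring 14 d after treatment (0 = no injury, 100 = complete control) against nontreated and solvent-blank plants gave percent growth reduction. Foliar application used a track sprayer delivering 187 L/ha to seedlings at first or second true leaf stage, grown at 23–29 °C day, ~15 h photoperiod.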

The mark [1] stands for this setting: ALOMY: blackgrass (Alopecurus myosuroides), 14 days after application, read-out: Visual Growth Reduction (%) 14 Days After Application, ALOMY.
Where [2] appears, read: AMARE: redroot pigweed (Amaranthus retroflexus), 14 days after application, read-out: Visual Growth Reduction (%) 14 Days After Application, AMARE.
[3] abbreviates: AVEFA: wild oat (Avena fatua), 14 days after application, read-out: Visual Growth Reduction (%) 14 Days After Application, AVEFA.
Setting [4] is: CHEAL: lambsquarters (Chenopodium album), 14 days after application, read-out: Visual Growth Reduction (%) 14 Days After Application, CHEAL.
Setting [5] is: CIRAR: canada thistle (Cirsium arvense), 14 days after application, read-out: Visual Growth Reduction (%) 14 Days After Application, CIRAR.
Where [6] appears, read: CYPES: yellow nutsedge (Cyperus esculentus), 14 days after application, read-out: Visual Growth Reduction (%) 14 Days After Application, CYPES.
[7] abbreviates: DIGSA: crabgrass (Digitaria sanguinalis), 14 days after application, read-out: Visual Growth Reduction (%) 14 Days After Application, DIGSA.
The mark [8] stands for this setting: ECHCG: barnyardgrass (Echinochloa crus-galli), 14 days after application, read-out: Visual Growth Reduction (%) 14 Days After Application, ECHCG.
Setting [9] is: IPOHE: ivy-leaf morning glory (Ipomoea hederacea), 14 days after application, read-out: Visual Growth Reduction (%) 14 Days After Application, IPOHE.
Setting [10] is: KCHSC: kochia (Bassia scoparia), 14 days after application, read-out: Visual Growth Reduction (%) 14 Days After Application, KCHSC.
Where [11] appears, read: ORYSA: rice (Oryza sativa), 14 days after application, read-out: Visual Growth Reduction (%) 14 Days After Application, ORYSA.
Where [12] appears, read: SETFA: giant foxtail (Setaria faberi), 14 days after application, read-out: Visual Growth Reduction (%) 14 Days After Application, SETFA.
Setting [13] is: SORVU: grain sorghum (Sorghum vulgare), 14 days after application, read-out: Visual Growth Reduction (%) 14 Days After Application, SORVU.
Where [14] appears, read: STEME: common chickweed (Stellaria media), 14 days after application, read-out: Visual Growth Reduction (%) 14 Days After Application, STEME.
Setting [15] is: TRZAS: wheat, spring (Triticum aestivum), 14 days after application, read-out: Visual Growth Reduction (%) 14 Days After Application, TRZAS.
Setting [16] is: blackgrass (Alopecurus myosuroides), 14 Days After Application, read-out: Visual Growth Reduction (%) ALOMY.
[17] abbreviates: canada thistle (Cirsium arvense), 14 Days After Application, read-out: Visual Growth Reduction (%) CIRAR.
Where [18] appears, read: crabgrass (Digitaria sanguinalis), 14 Days After Application, read-out: Visual Growth Reduction (%) DIGSA.
The mark [19] stands for this setting: lambsquarters (Chenopodium album), 14 Days After Application, read-out: Visual Growth Reduction (%) CHEAL.
Where [20] appears, read: redroot pigweed (Amaranthus retroflexus), 14 Days After Application, read-out: Visual Growth Reduction (%) AMARE.
[21] abbreviates: wild oat (Avena fatua), 14 Days After Application, read-out: Visual Growth Reduction (%) AVEFA.
[22] abbreviates: yellow nutsedge (Cyperus esculentus), 14 Days After Application, read-out: Visual Growth Reduction (%) CYPES.

Like-named read-outs stand apart in the source and are kept apart here.

As for `COC(=O)c1nc(-c2ccc([N+](=O)[O-])cc2)c(F)cc1Cl` [F197, Methyl 3-chloro-5-fluoro-6-(4-nitrophenyl) picolinate], for the setting “ALOMY: blackgrass (Alopecurus myosuroides), 14 days after application”, the “Visual Growth Reduction (%) 14 Days After Application, ALOMY” value was “G (0-29)”. Besides, the “Visual Growth Reduction (%) 14 Days After Application, AMARE” value (AMARE: redroot pigweed (Amaranthus retroflexus), 14 days after application) is on record as “G (0-29)”. Moreover, under “AVEFA: wild oat (Avena fatua), 14 days after application”, the “Visual Growth Reduction (%) 14 Days After Application, AVEFA” value is “G (0-29)”. Also, the “Visual Growth Reduction (%) 14 Days After Application, CHEAL” value (CHEAL: lambsquarters (Chenopodium album), 14 days after application) is given as “E (45-59)”. The “Visual Growth Reduction (%) 14 Days After Application, CIRAR” value (CIRAR: canada thistle (Cirsium arvense), 14 days after application) was “G (0-29)”. Moreover, the “Visual Growth Reduction (%) 14 Days After Application, CYPES” value (CYPES: yellow nutsedge (Cyperus esculentus), 14 days after application) is listed as “G (0-29)”. For the same molecule, where the note is “DIGSA: crabgrass (Digitaria sanguinalis), 14 days after application”, the “Visual Growth Reduction (%) 14 Days After Application, DIGSA” value is given as “F (30-44)”. For the same molecule, the “Visual Growth Reduction (%) 14 Days After Application, ECHCG” value (ECHCG: barnyardgrass (Echinochloa crus-galli), 14 days after application) was “G (0-29)”. Also, the “Visual Growth Reduction (%) 14 Days After Application, IPOHE” value (IPOHE: ivy-leaf morning glory (Ipomoea hederacea), 14 days after application) is “D (60-74)”. For the same molecule, the “Visual Growth Reduction (%) 14 Days After Application, KCHSC” value (KCHSC: kochia (Bassia scoparia), 14 days after application) is “G (0-29)”. The “Visual Growth Reduction (%) 14 Days After Application, ORYSA” value (ORYSA: rice (Oryza sativa), 14 days after application) is reported as “G (0-29)”. The “Visual Growth Reduction (%) 14 Days After Application, SETFA” value (SETFA: giant foxtail (Setaria faberi), 14 days after application) is given as “G (0-29)”. Besides, the “Visual Growth Reduction (%) 14 Days After Application, SORVU” value (SORVU: johnsongrass (Sorghum vulgare), 14 days after application) was “F (30-44)”. In addition, the “Visual Growth Reduction (%) 14 Days After Application, STEME” value (STEME: common chickweed (Stellaria media), 14 days after application) is on record as “G (0-29)”. Also, the “Visual Growth Reduction (%) 14 Days After Application, TRZAS” value (TRZAS: wheat, spring (Triticum aestivum), 14 days after application) was “G (0-29)”.

With `O=C(O)c1nc(-c2ccc3occc3c2)c(F)cc1Cl` [F198, 6-(Benzofuran-5-yl)-3-chloro-5-fluoropicolinic acid], the pest or weed control at 140 g/ha is, setting by setting: under setting [1], 0 to 29%; under setting [2], 0 to 29%; under setting [3], 0 to 29%; under setting [4], 0 to 29%; under setting [5], 0 to 29%; under setting [6], 0 to 29%. In addition, the pest or weed control at 140 g/ha reads like this: under setting [7], 0 to 29%; under setting [8], 0 to 29%; under setting [9], 60 to 74%; under setting [10], 0 to 29%; under setting [11], 0 to 29%; under setting [12], 0 to 29%. For the same molecule, the pest or weed control at 140 g/ha reads like this: under setting [13], 0 to 29%; under setting [14], 0 to 29%; under setting [15], 0 to 29%.

With `O=C(O)c1nc(-c2ccc3[nH]ccc3c2)c(F)cc1Cl` [F199, 3-Chloro-5-fluoro-6-(1H-indol-5-yl)picolinic acid], the pest or weed control at 140 g/ha is, setting by setting: under setting [1], 0 to 29%; under setting [2], 0 to 29%; under setting [3], 0 to 29%; under setting [4], 30 to 44%; under setting [5], 0 to 29%; under setting [6], 0 to 29%. Also, the pest or weed control at 140 g/ha was in the range of 0 to 29% under setting [7]; 0 to 29% under setting [8]; 0 to 29% under setting [9]; 0 to 29% under setting [10]; 0 to 29% under setting [11]; 0 to 29% under setting [12]. Moreover, the pest or weed control at 140 g/ha lay in the range of 0 to 29% under setting [13], 0 to 29% under setting [14] and 0 to 29% under setting [15].

Take `COC(=O)c1nc(-c2ccc(OC(F)F)cc2Cl)c(F)cc1Cl` [F200, Methyl 3-chloro-6-(2-chloro-4-(difluoromethoxy)phenyl)-5-fluoropicolinate]: the pest or weed control at 140 g/ha under setting [8] fell in the range of 75 to 84%; the pest or weed control at 140 g/ha under setting [9] lay in the range of 95 to 100%; the pest or weed control at 140 g/ha under setting [10] fell in the range of 95 to 100%; the pest or weed control at 140 g/ha under setting [11] was 0 to 29%; the pest or weed control at 140 g/ha under setting [12] was 85 to 94%; the pest or weed control at 140 g/ha under setting [13] lay within 95 to 100%. The pest or weed control at 140 g/ha lay in the range of 30 to 44% under setting [14]; 75 to 84% under setting [15]; 45 to 59% under setting [16]; 95 to 100% under setting [17]; 95 to 100% under setting [18]; 95 to 100% under setting [19]. Moreover, the pest or weed control at 140 g/ha lay in the range of 95 to 100% under setting [20], 60 to 74% under setting [21] and 0 to 29% under setting [22].

`COC(=O)c1nc(-c2ccc(C(F)(F)F)cc2Cl)ccc1[N+](=O)[O-]` [F201, Methyl 6-(2-chloro-4-(trifluoromethyl)phenyl)-3-nitropicolinate]: the pest or weed control at 140 g/ha by setting is: under setting [8], 0 to 29%; under setting [9], 0 to 29%; under setting [10], 0 to 29%; under setting [11], 0 to 29%; under setting [12], 0 to 29%; under setting [13], 0 to 29%. Further, the pest or weed control at 140 g/ha was 0 to 29% under setting [14]; 0 to 29% under setting [15]; 0 to 29% under setting [16]; 0 to 29% under setting [17]; 0 to 29% under setting [18]; 0 to 29% under setting [19]. Further, the pest or weed control at 140 g/ha under setting [20] fell in the range of 45 to 59%, the pest or weed control at 140 g/ha under setting [21] lay within 0 to 29% and the pest or weed control at 140 g/ha under setting [22] was in the range of 0 to 29%.

On to `COC(=O)c1nc(-c2ccc3c(c2)C(F)(F)OC(F)(F)O3)c(Cl)cc1Cl` [F202, Methyl 3,5-dichloro-6-(2,2,4,4-tetrafluoro-4H-benzo[d][1,3]dioxin-6-yl)picolinate], for which the pest or weed control at 140 g/ha lay in the range of 0 to 29% under setting [8]; 0 to 29% under setting [9]; 0 to 29% under setting [10]; 0 to 29% under setting [11]; 0 to 29% under setting [12]; 0 to 29% under setting [13]. Also, the pest or weed control at 140 g/ha runs as follows: under setting [14], 0 to 29%; under setting [15], 0 to 29%; under setting [16], 0 to 29%; under setting [17], 0 to 29%; under setting [18], 0 to 29%; under setting [19], 0 to 29%. The pest or weed control at 140 g/ha under setting [20] lay in the range of 0 to 29%, the pest or weed control at 140 g/ha under setting [21] was 0 to 29% and the pest or weed control at 140 g/ha under setting [22] was in the range of 0 to 29%.
